Reference: US20100099561A1, “HETEROBICYCLIC ALKYLTHIO-BRIDGED ISOXAZOLINES” (E.I. DU PONT DE NEMOURS AND COMPANY, priority 2008, published 2010)

Legend:
Assay type in all cases: in vivo
[1] = system: velvetleaf (Abutilon theophrasti); assay: Test A preemergence, velvetleaf; conditions: 0 to 100 scale (0 no effect, 100 complete control)
Source text: (§1) Seeds of barnyardgrass (Echinochloa crus-galli), large crabgrass (Digitaria sanguinalis), giant foxtail (Setaria faberi), morningglory (Ipomoea spp.), pigweed (Amaranthus retroflexus), velvetleaf (Abutilon theophrasti), wheat (Triticum aestivum), and corn (Zea mays) were planted into a blend of loam soil and sand and treated preemergence with a directed soil spray using test chemicals formulated in a non-phytotoxic solvent mixture which included a surfactant. At the same time these species were also treated with postemergence applications of test compounds formulated in the same manner. Plants ranged in height from two to ten cm and were in the one- to two-leaf stage for the postemergence treatment. Treated plants and untreated controls were maintained in a greenhouse for approximately ten days, after which time all treated plants were compared to untreated controls and visually evaluated for injury. Plant response ratings, summarized in Table A, are based on a 0 to 100 scale where 0 is no effect and 100 is complete control. A dash (-) response means no test result.

[2] = system: umbrella sedge (Cyperus difformis); assay: Test B flooded paddy test, umbrella sedge; conditions: Flood, scale 0 to 100
Source text: (§2) Plant species in the flooded paddy test consisted of rice (Oryza sativa), umbrella sedge (Cyperus difformis), ducksalad (Heteranthera limosa) and barnyardgrass (Echinochloa crus-galli) grown to the 2-leaf stage for testing. At time of treatment, test pots were flooded to 3 cm above the soil surface, treated by application of test compounds directly to the paddy water, and then maintained at that water depth for the duration of the test. Treated plants and controls were maintained in a greenhouse for 13 to 15 days, after which time all species were compared to controls and visually evaluated. Plant response ratings, summarized in Table B, are based on a scale of 0 to 100 where 0 is no effect and 100 is complete control. A dash (-) response means no test result.

[3] = system: barnyardgrass (Echinochloa crus-galli); assay: Test A preemergence, barnyardgrass; conditions: 0 to 100 scale (0 no effect, 100 complete control)
Source text: as §1

[4] = system: barnyardgrass (Echinochloa crus-galli); assay: Test B flooded paddy test, barnyardgrass; conditions: Flood
Source text: as §2

[5] = system: wheat (Triticum aestivum); assay: Test A preemergence, wheat; conditions: 0 to 100 scale (0 no effect, 100 complete control)
Source text: as §1

[6] = system: giant foxtail (Setaria faberi); assay: Test A postemergence, giant foxtail; conditions: 0 to 100 scale (0 no effect, 100 complete control)
Source text: as §1

[7] = system: barnyardgrass (Echinochloa crus-galli); assay: Test A postemergence, barnyardgrass; conditions: 0 to 100 scale (0 no effect, 100 complete control)
Source text: as §1

[8] = system: wheat (Triticum aestivum); assay: Test A postemergence, wheat; conditions: 0 to 100 scale (0 no effect, 100 complete control)
Source text: as §1

[9] = system: pigweed (Amaranthus retroflexus); assay: Test A postemergence, pigweed; conditions: 0 to 100 scale (0 no effect, 100 complete control)
Source text: as §1

[10] = system: ducksalad (Heteranthera limosa); assay: Test B flooded paddy test, ducksalad; conditions: Flood, scale 0 to 100
Source text: as §2

[11] = system: morningglory (Ipomoea spp.); assay: Test A preemergence, morningglory; conditions: 0 to 100 scale (0 no effect, 100 complete control)
Source text: as §1

[12] = system: rice (Oryza sativa); assay: Test B flooded paddy test, rice; conditions: Flood, scale 0 to 100
Source text: as §2

[13] = system: morningglory (Ipomoea spp.); assay: Test A postemergence, morningglory; conditions: 0 to 100 scale (0 no effect, 100 complete control)
Source text: as §1

[14] = system: corn (Zea mays); assay: Test A postemergence, corn; conditions: 0 to 100 scale (0 no effect, 100 complete control)
Source text: as §1

[15] = system: large crabgrass (Digitaria sanguinalis); assay: Test A postemergence, large crabgrass; conditions: 0 to 100 scale (0 no effect, 100 complete control)
Source text: as §1

[16] = system: giant foxtail (Setaria faberi); assay: Test A preemergence, giant foxtail; conditions: 0 to 100 scale (0 no effect, 100 complete control)
Source text: as §1

[17] = system: pigweed (Amaranthus retroflexus); assay: Test A preemergence, pigweed; conditions: 0 to 100 scale (0 no effect, 100 complete control)
Source text: as §1

[18] = system: corn (Zea mays); assay: Test A preemergence, corn; conditions: 0 to 100 scale (0 no effect, 100 complete control)
Source text: as §1

[19] = system: large crabgrass (Digitaria sanguinalis); assay: Test A preemergence, large crabgrass; conditions: 0 to 100 scale (0 no effect, 100 complete control)
Source text: as §1

[20] = system: velvetleaf (Abutilon theophrasti); assay: Test A postemergence, velvetleaf; conditions: 0 to 100 scale (0 no effect, 100 complete control)
Source text: as §1

[21] = 250 g ai/ha, scale 0 to 100 (0 no effect, 100 complete control)

CC1(C)CC(S(=O)(=O)Cc2c(C(F)(F)F)nc3n(c2=O)CCCO3)=NO1 [Compound 4]
Plant response rating, Velvetleaf ([1]; 125 g ai/ha): 10
Plant response rating, Velvetleaf ([1]; 500 g ai/ha): 90
Plant response rating, Sedge, Umbrella ([2]; 31 g ai/ha): 0
Plant response rating, Sedge, Umbrella ([2]; 62 g ai/ha): 0
Plant response rating, Sedge, Umbrella ([2]; 125 g ai/ha): 0
Plant response rating, Sedge, Umbrella ([2]; 250 g ai/ha): 0
Plant response rating, Barnyardgrass ([3]; 125 g ai/ha): 70
Plant response rating, Barnyardgrass ([3]; 500 g ai/ha): 100
Plant response rating, Barnyardgrass ([4]; 31 g ai/ha, scale 0 to 100): 0
Plant response rating, Barnyardgrass ([4]; 62 g ai/ha, scale 0 to 100): 0
Plant response rating, Barnyardgrass ([4]; 125 g ai/ha, scale 0 to 100): 0
Plant response rating, Barnyardgrass [4, 21]: 0
Plant response rating, Wheat ([5]; 125 g ai/ha): 0
Plant response rating, Wheat ([5]; 500 g ai/ha): 40
Plant response rating, Foxtail, Giant ([6]; 125 g ai/ha): 70
Plant response rating, Foxtail, Giant ([6]; 500 g ai/ha): 80
Plant response rating, Barnyardgrass ([7]; 125 g ai/ha): 70
Plant response rating, Barnyardgrass ([7]; 500 g ai/ha): 80
Plant response rating, Wheat ([8]; 125 g ai/ha): 0
Plant response rating, Wheat ([8]; 500 g ai/ha): 10
Plant response rating, Pigweed ([9]; 125 g ai/ha): 30
Plant response rating, Pigweed ([9]; 500 g ai/ha): 60
Plant response rating, Ducksalad ([10]; 31 g ai/ha): 0
Plant response rating, Ducksalad ([10]; 62 g ai/ha): 0
Plant response rating, Ducksalad ([10]; 125 g ai/ha): 0
Plant response rating, Ducksalad ([10]; 250 g ai/ha): 0
Plant response rating, Morningglory ([11]; 125 g ai/ha): 0
Plant response rating, Morningglory ([11]; 500 g ai/ha): 70
Plant response rating, Rice ([12]; 31 g ai/ha): 0
Plant response rating, Rice ([12]; 62 g ai/ha): 0
Plant response rating, Rice ([12]; 125 g ai/ha): 0
Plant response rating, Rice ([12]; 250 g ai/ha): 0
Plant response rating, Morningglory ([13]; 125 g ai/ha): 0
Plant response rating, Morningglory ([13]; 500 g ai/ha): 50
Plant response rating, Corn ([14]; 125 g ai/ha): 0
Plant response rating, Corn ([14]; 500 g ai/ha): 50
Plant response rating, Crabgrass, Large ([15]; 125 g ai/ha): 60
Plant response rating, Crabgrass, Large ([15]; 500 g ai/ha): 80
Plant response rating, Foxtail, Giant ([16]; 125 g ai/ha): 90
Plant response rating, Foxtail, Giant ([16]; 500 g ai/ha): 100
Plant response rating, Pigweed ([17]; 125 g ai/ha): 30
Plant response rating, Pigweed ([17]; 500 g ai/ha): 100
Plant response rating, Corn ([18]; 125 g ai/ha): 0
Plant response rating, Corn ([18]; 500 g ai/ha): 50
Plant response rating, Crabgrass, Large ([19]; 125 g ai/ha): 60
Plant response rating, Crabgrass, Large ([19]; 500 g ai/ha): 100
Plant response rating, Velvetleaf ([20]; 125 g ai/ha): 50
Plant response rating, Velvetleaf ([20]; 500 g ai/ha): 70

CCn1c(=O)c(CS(=O)(=O)C2=NOC(C)(C)C2)nc2cccnc21 [Compound 57]
Plant response rating, Velvetleaf ([1]; 125 g ai/ha): 0
Plant response rating, Velvetleaf ([1]; 500 g ai/ha): 0
Plant response rating, Sedge, Umbrella ([2]; 31 g ai/ha): 0
Plant response rating, Sedge, Umbrella ([2]; 62 g ai/ha): 0
Plant response rating, Sedge, Umbrella ([2]; 125 g ai/ha): 0
Plant response rating, Sedge, Umbrella ([2]; 250 g ai/ha): 0
Plant response rating, Barnyardgrass ([3]; 125 g ai/ha): 0
Plant response rating, Barnyardgrass ([3]; 500 g ai/ha): 40
Plant response rating, Barnyardgrass ([4]; 31 g ai/ha, scale 0 to 100): 0
Plant response rating, Barnyardgrass ([4]; 62 g ai/ha, scale 0 to 100): 0
Plant response rating, Barnyardgrass ([4]; 125 g ai/ha, scale 0 to 100): 0
Plant response rating, Barnyardgrass [4, 21]: 0
Plant response rating, Wheat ([5]; 125 g ai/ha): 0
Plant response rating, Wheat ([5]; 500 g ai/ha): 0
Plant response rating, Foxtail, Giant ([6]; 125 g ai/ha): 0
Plant response rating, Foxtail, Giant ([6]; 500 g ai/ha): 30
Plant response rating, Barnyardgrass ([7]; 125 g ai/ha): 0
Plant response rating, Barnyardgrass ([7]; 500 g ai/ha): 30
Plant response rating, Wheat ([8]; 125 g ai/ha): 0
Plant response rating, Wheat ([8]; 500 g ai/ha): 0
Plant response rating, Pigweed ([9]; 125 g ai/ha): 0
Plant response rating, Pigweed ([9]; 500 g ai/ha): 0
Plant response rating, Ducksalad ([10]; 31 g ai/ha): 0
Plant response rating, Ducksalad ([10]; 62 g ai/ha): 0
Plant response rating, Ducksalad ([10]; 125 g ai/ha): 0
Plant response rating, Ducksalad ([10]; 250 g ai/ha): 0
Plant response rating, Morningglory ([11]; 125 g ai/ha): 0
Plant response rating, Morningglory ([11]; 500 g ai/ha): 0
Plant response rating, Rice ([12]; 31 g ai/ha): 0
Plant response rating, Rice ([12]; 62 g ai/ha): 0
Plant response rating, Rice ([12]; 125 g ai/ha): 0
Plant response rating, Rice ([12]; 250 g ai/ha): 0
Plant response rating, Morningglory ([13]; 125 g ai/ha): 0
Plant response rating, Morningglory ([13]; 500 g ai/ha): 0
Plant response rating, Corn ([14]; 125 g ai/ha): 0
Plant response rating, Corn ([14]; 500 g ai/ha): 0
Plant response rating, Crabgrass, Large ([15]; 125 g ai/ha): 10
Plant response rating, Crabgrass, Large ([15]; 500 g ai/ha): 40
Plant response rating, Foxtail, Giant ([16]; 125 g ai/ha): 0
Plant response rating, Foxtail, Giant ([16]; 500 g ai/ha): 40
Plant response rating, Pigweed ([17]; 125 g ai/ha): 0
Plant response rating, Pigweed ([17]; 500 g ai/ha): 0
Plant response rating, Corn ([18]; 125 g ai/ha): 0
Plant response rating, Corn ([18]; 500 g ai/ha): 0
Plant response rating, Crabgrass, Large ([19]; 125 g ai/ha): 40
Plant response rating, Crabgrass, Large ([19]; 500 g ai/ha): 50
Plant response rating, Velvetleaf ([20]; 125 g ai/ha): 0
Plant response rating, Velvetleaf ([20]; 500 g ai/ha): 0
